Reference: patent US4732970A, “Antitumor amino acid and peptide derivatives of 1,4-bis(aminoalkyl and hydroxy-aminoalkyl)amino)-5,8-dihydroxyanthraquinones” (priority 1986, dated 1988)

What was measured:
[1] = system: melanotic melanoma B16 tumor; assay: Melanotic Melanoma B16 test; assay type: in vivo, BDF1 mice; conditions: for Median Survival: BDF1 mice; for T/C × 100 (%): ratio of survival time treated/control
Method: The animals used were BDFl mice, all of the same sex, weighing a minimum of 17 g and all within a 3 g weight range. There were 12 animals per test group. A 1 g portion of melanotic melanoma B16 tumor was homogenized in 10 ml of cold balanced salt solution and a 0.5 ml aliquot of the homogenate was implanted intraperitoneally into each of the test mice. The test compounds were administered intraperitoneally on days 1, 5 and 9 (relative to tumor inoculation) at various doses. The animals were weighed and survivors recorded on a regular basis for 60 days. The median survival time and ratio of survival time for treated (T)/control (C) animals were calculated. The positive control compound was 1,4-bis[(2-aminoethyl)amino]-5,8-dihydroxyanthraquinone, dihydrochloride (U.S. patent application Ser. No. 87,354, filed Oct. 23, 1979).

[2] = system: lymphocytic leukemia P388; assay: Lymphocytic Leukemia P388 Test; assay type: in vivo, BDF1 mice; conditions: for Median Survival: BDF1 mice
Method in brief: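 BDF1 mice (5–6 per group) were inoculated i.p. with 10^6 P388 cells, then dosed i.p. on days 1, 5 and 9 at various doses. Survival was followed for 60 days, and median survival time and the treated/control (T/C) survival ratio were calculated.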

[3] = dose 0.75 mg/kg intraperitoneally on days 1, 5 and 9
[4] = dose 1.5 mg/kg intraperitoneally on days 1, 5 and 9
[5] = dose 3 mg/kg intraperitoneally on days 1, 5 and 9
[6] = dose 0.75 mg/kg intraperitoneally on days 1, 5 and 9, ratio of survival time treated/control
[7] = dose 1.5 mg/kg intraperitoneally on days 1, 5 and 9, ratio of survival time treated/control
[8] = dose 3 mg/kg intraperitoneally on days 1, 5 and 9, ratio of survival time treated/control

Molecule | Median Survival [1, 3] | T/C × 100 (%) [1, 3] | Median Survival [1, 4] | T/C × 100 (%) [1, 4] | Median Survival [1, 5] | T/C × 100 (%) [1, 5] | Median Survival [2, 3] | T/C × 100 (%) [2, 6] | Median Survival [2, 4] | T/C × 100 (%) [2, 7] | Median Survival [2, 5] | T/C × 100 (%) [2, 8] | response vs control in vivo at 0.75 mg/kg ([2]; Mus musculus, P388, ip, dose 0.75 mg/kg intraperitoneally on days 1, 5 and 9, ratio of survival time treated/control, read-out: T/C × 100 (%)) | response vs control in vivo at 1.5 mg/kg ([2]; Mus musculus, P388, ip, dose 1.5 mg/kg intraperitoneally on days 1, 5 and 9, ratio of survival time treated/control, read-out: T/C × 100 (%)) | response vs control in vivo at 3 mg/kg ([2]; Mus musculus, P388, ip, dose 3 mg/kg intraperitoneally on days 1, 5 and 9, ratio of survival time treated/control, read-out: T/C × 100 (%))
Cl.Cl.N[C@@H](CCC(=O)O)C(=O)NCCNc1ccc(NCCNC(=O)[C@@H](N)CCC(=O)O)c2c1C(=O)c1c(O)ccc(O)c1C2=O (relative stereo) [Example 23, [S-(R*,R*)]-5,5'-[(9,10-Dihydro-5,8-dihydroxy-9,10-dioxo-1,4-anthracenediyl)bis(imino-2,1-ethanediylimino)]-bis[4-amino-5-oxo-pentanoic acid], dihydrochloride] | 27.5 days | 162% | 31.0 days | 182% | 22.0 days | 129% | 22.0 days | 220% | 24.5 days | 245% | 41.0 days | 410% | – | – | –
C[C@@H](O)[C@H](N)C(=O)NCCNc1ccc(NCCNC(=O)[C@@H](N)[C@@H](C)O)c2c1C(=O)c1c(O)ccc(O)c1C2=O.O=C(O)C(F)(F)F.O=C(O)C(F)(F)F (relative stereo) [Example 26, [2S-(2R*,2'R*,3S*,3'S*)]-N,N'-[(9,10-Dihydro-5,8-dihydroxy-9,10-dioxo-1,4-anthracenediyl)bis(imino-2,1-ethanediyl)]bis[2-amino-3-hydroxybutanamide]bis(trifluo roacetate)] | 35.0 days | 206% | 39.5 days | 232% | 40.0 days | 235% | 21.0 days | 210% | 22.5 days | 225% | 33.5 days | 335% | – | – | –
Br.Br.Br.Br.NCCCC[C@H](N)C(=O)NCCNc1ccc(NCCNC(=O)[C@@H](N)CCCCN)c2c1C(=O)c1c(O)ccc(O)c1C2=O (relative stereo) [Example 33, [S-(R*,R*)]-N,N'-[(9,10-Dihydro-5,8-dihydroxy-9,10-dioxo-1,4-anthracenediyl)bis(imino-2,1-ethanediyl)]bis[2,6-diaminohexanamide], tetrahydrobromide] | 26.5 days | 156% | 37.5 days | 221% | 25.5 days | 162% | 23.0 days | 230% | 33.0 days | 330% | 13.0 days | 130% | – | – | –
Cl.Cl.NCCNc1ccc(NCCN)c2c1C(=O)c1c(O)ccc(O)c1C2=O [1,4-bis[(2-aminoethyl)amino]-5,8-dihydroxyanthraquinone, dihydrochloride, reference compound] | – | – | 46.5 days | 274% | – | – | – | – | – | – | – | – | – | – | –
Cl.Cl.NCC(=O)NCCNc1ccc(NCCNC(=O)CN)c2c1C(=O)c1c(O)ccc(O)c1C2=O [Example 19, N,N'-[(9,10-Dihydro-5,8-dihydroxy-9,10-dioxo-1,4-anthracenediyl)bis(imino-2,1-ethanediyl)]bis[2-amino-acetamide], dihydrochloride] | 27.5 days | 162% | 28.0 days | 165% | 37.0 days | 218% | 22.0 days | – | 24.0 days | – | 34.5 days | – | 183% | 200% | 288%
Br.Br.C[C@H](NC(=O)[C@H](CO)NC(=O)[C@H](CCCNC(=N)N)NC(=O)OCc1ccccc1)C(=O)NCCNc1ccc(NCCNC(=O)[C@H](C)NC(=O)[C@H](CO)NC(=O)[C@H](CCCNC(=N)N)NC(=O)OCc2ccccc2)c2c1C(=O)c1c(O)ccc(O)c1C2=O [Example 93, N,N'-[(9,10-Dihydro-5,8-dihydroxy-9,10-dioxo-1,4-anthracencdiyl)bis(imino-2,1-ethanediyl)][L-alanyl-L-seryl-carbobenzyloxy-L-argininamide]dihydrobromide] | – | – | – | – | – | – | 22.0 days | 200% | 22.5 days | 205% | 24.5 days | 223% | – | – | –
Br.Br.Br.Br.C[C@H](NC(=O)[C@H](CO)NC(=O)[C@@H](N)CCCNC(=N)N)C(=O)NCCNc1ccc(NCCNC(=O)[C@H](C)NC(=O)[C@H](CO)NC(=O)[C@@H](N)CCCNC(=N)N)c2c1C(=O)c1c(O)ccc(O)c1C2=O [Example 94, N,N'-[(9,10-Dihydro-5,8-dihydroxy-9,10-dioxo-1,4-anthracenediyl)bis(imino-2,1-ethanediyl)]bis[L-arginyl-L-seryl-L-alaninamide], tetrahydrobromide] | – | – | – | – | – | – | 21.5 days | 195% | 21.0 days | 191% | 34.5 days | 314% | – | – | –
N,N'-[(9,10-Dihydro-5,8-dihydroxy-9,10-dioxo-1,4-anthracenediyl)bis(imino-2,1-ethanediyl)]bis[L-alanyl-L-alanine]bis(trifluoroacetate) [Example 72] | – | – | – | – | – | – | 20.0 days | 190% | 20.0 days | 190% | 23.0 days | 219% | – | – | –
N,N'-[(9,10-Dihydro-5,8-dihydroxy-9,10-oxo-1,4-anthracenediyl)bis(imino-2,1-ethanediyl) ]bis[L-arginine(phenylmethyl)]ester, dihydrobromide [Example 85] | – | – | – | – | – | – | 21.5 days | 179% | 21.0 days | 175% | 22.5 days | 188% | – | – | –
[S-(R*,R*)][(9,10-Dihydro-5,8-dihydroxy-9,10-dioxo-1,4-anthracenediyl)bis[1-[3-[[imino(nitroamino)methyl]amino]propyl]-2-oxo-2,1-ethanediyl]]bis-carbamic acid, bis(phenylmethyl)ester [Example 91] | – | – | – | – | – | – | 15.5 days | 141% | 16.5 days | 150% | 18.0 days | 164% | – | – | –
[S-(R*,R*)][(9,10-Dihydro-5,8-dihydroxy-9,10-dioxo-1,4-anthracenediyl)bis[imino-2,1-ethanediylimino[1-[3-[[imino[[(phenylmethoxy)carbonyl]amino]methyl][(phenylmethoxy)carbonyl]propyl]-2-oxo-2,1-ethanediyl]]]carbamic acid, bis(phenylmethyl)ester [Example 95] | – | – | – | – | – | – | 14.0 days | 127% | 16.0 days | 145% | 16.0 days | 145% | – | – | –
